Like-named read-outs stand apart in the source and are kept apart here.

In one assay the target is T1, glucagon receptor (GCGR) (Homo sapiens, UniProt P47871).
T1 construct: expressed in transfected cells; host or cells: CHO-K1 cells overexpressing GCGR (membrane fractions)
The experiment in a line: I125-glucagon binding assay (competition, GCGR membrane fractions). The method in brief:
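Competition of 0.0625 nM (final) I^125-glucagon for 30 min at 25° C, after 5 min compound preincubation, using 7.5 μg/well GCGR-overexpressing CHO-K1 membranes in 50 mM Tris pH 7.4, 0.5% BSA. Filtration onto PEI-coated GF/B, micro-beta counting, and non-linear regression gave IC50.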

The target in assay [1] is T2, glucagon receptor (GCGR) overexpressed CHO-K1 cells or human primary hepatocytes (Homo sapiens, UniProt P47871).
T2 construct: expressed in transfected cells; host or cells: GCGR overexpressed CHO-K1 cells or human primary hepatocytes (endogenous receptor)
The experiment in a line: Glucagon cAMP inhibition assay (Cisbio cAMP Dynamic 2 HTRF). The format is cell-based. The method in brief: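 HTRF read-out of glucagon-induced cAMP, with IC50 from non-linear regression. Cells (GCGR CHO-K1 or human primary hepatocytes) in HBSS/0.1% BSA/800 nM IBMX took compound dilutions for 30 min (final DMSO 1%), then EC50-level glucagon for 30 min at room temperature, then a 60 min lysis/detection step.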
(In general: In TR-FRET formats the signal depends on donor and acceptor labels being close together.)

[2] abbreviates: competition with I125-glucagon 0.0625 nM, membrane fractions of GCGR overexpressed CHO-K1 cells.
Setting [3] is: inhibition of glucagon (EC50 concentration) induced cAMP production.

T2 sequence (P47871 26-477): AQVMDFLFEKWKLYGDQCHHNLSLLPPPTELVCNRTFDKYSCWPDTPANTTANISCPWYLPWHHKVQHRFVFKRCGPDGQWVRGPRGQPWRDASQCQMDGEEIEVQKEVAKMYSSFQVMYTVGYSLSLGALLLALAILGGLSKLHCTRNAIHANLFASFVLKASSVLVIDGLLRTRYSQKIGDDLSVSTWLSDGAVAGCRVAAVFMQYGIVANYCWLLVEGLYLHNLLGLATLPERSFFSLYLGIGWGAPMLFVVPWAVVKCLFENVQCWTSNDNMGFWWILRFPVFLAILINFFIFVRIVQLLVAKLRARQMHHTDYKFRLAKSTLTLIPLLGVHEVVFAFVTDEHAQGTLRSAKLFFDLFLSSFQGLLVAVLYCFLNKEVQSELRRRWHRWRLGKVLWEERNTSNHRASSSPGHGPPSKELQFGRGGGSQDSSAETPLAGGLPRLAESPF
T1 sequence (P47871 26-477): as above

By IC50 is commonly meant the concentration at which inhibition is half-maximal. A higher IC50 goes with weaker potency. Turning to `CC(C)[C@@H](COc1ccc(-c2ccc(Cl)cc2Cl)cn1)Nc1ccc(C(=O)NCCC(=O)O)cn1` [Compound 16-1, (S)-3-(6-((1-((5-(2,4-dichlorophenyl)pyridin-2-yl)oxy)-3-methylbutan-2-yl)amino)nicotinamido)propanoic Acid], the IC50 on glucagon receptor (GCGR) (setting [2]) is 0.215 µM. Further, the “IC50 cAMP” value in assay [1] (setting [3]) is 0.3572 µM.

For the compound `CCC(C)[C@H](Nc1ccc(C(=O)NCCC(=O)O)cc1)c1nnc(-c2oc3ccccc3c2C)o1` (stereo partly drawn) [Compound 20-2, 3-(4-(((1S)-2-methyl-1-(5-(3-methylbenzofuran-2-yl)-1,3,4-oxadiazol-2-yl)butyl)amino)benzamido)propanoic Acid], on glucagon receptor (GCGR), the IC50 worked out at 0.974 µM. Further, in assay [1], the “IC50 cAMP” value was 22.191 µM.

In the case of `CC(C)[C@@H](COc1ccc(-c2cc3ccccc3o2)c(Cl)c1)Nc1ccc(C(=O)NCc2nnn[nH]2)cc1` [Compound 3-5, (S)—N-((1H-tetrazol-5-yl)methyl)-4-((1-(4-(benzofuran-2-yl)-3-chlorophenoxy)-3-methylbutan-2-yl)amino)benzamide], the IC50 at glucagon receptor (GCGR) (setting [2]) came out at 0.117 µM. Also, in assay [1] (setting [3]), the “IC50 cAMP” value stood at 1.863 µM.

In turn, `CCCC[C@@H](COc1cnc(-c2ccc(Cl)cc2Cl)nc1)Nc1ccc(C(=O)NCCC(=O)O)cc1` [Compound 12-7, (S)-3-(4-((1-((2-(2,4-dichlorophenyl)pyrimidin-5-yl)oxy)hexan-2-yl)amino)benzamido)propanoic Acid] showed an IC50 on glucagon receptor (GCGR) (setting [2]) of 0.888 µM. In addition, the “IC50 cAMP” value in assay [1] (setting [3]) came out at 3.868 µM.

`CC(C)(C)[C@@H](COc1ccc(-c2ccc(Cl)cc2Cl)cc1)Nc1ccc(C(=O)NCCC(=O)O)cc1` [Compound 1-36, (S)-3-(4-((1-((2′,4′-dichloro-[1,1′-biphenyl]-4-yl)oxy)-3,3-dimethylbutan-2-yl)amino)benzamido)propanoic Acid] came in with an IC50 on glucagon receptor (GCGR) (setting [2]) of 0.141 µM. Moreover, the “IC50 cAMP” value in assay [1] (setting [3]) amounted to 0.243 µM.

For `CCCC[C@@H](COc1nnc(-c2ccc(Cl)cc2Cl)o1)Nc1ccc(C(=O)NCCC(=O)O)cc1` [Compound 22-6, (S)-3-(4-((1-((5-(2,4-dichlorophenyl)-1,3,4-oxadiazol-2-yl)oxy)hexan-2-yl)amino)benzamido)propanoic Acid], the IC50 on glucagon receptor (GCGR) was above 30 µM. Also, in assay [1], the “IC50 cAMP” value is above 30 µM.

In turn, `CCOC(=O)CCNC(=O)c1ccc(N[C@H](COc2ccc(-c3nc4ccccc4s3)cn2)C(C)C)cc1` [Compound 15-36, Ethyl (S)-3-(4-((1-((5-(benzo[d]thiazol-2-yl)pyridin-2-yl)oxy)-3-methylbutan-2-yl)amino)benzamido)propanoate] displayed an IC50 at glucagon receptor (GCGR) (uM) above 30 µM. Besides, the “IC50 cAMP” value in assay [1] came out at 1.973 µM.

Compound `CC(C)[C@@H](COc1cc(F)c(-c2ccc(C(F)(F)F)cc2F)c(F)c1)Nc1ccc(C(=O)NCCC(=O)O)cc1` [Compound 7-4, (S)-3-(4-((3-methyl-1-((2,2′,6-trifluoro-4′-(trifluoromethyl)-[1,1′-biphenyl]-4-yl)oxy)butan-2-yl)amino)benzamido)propanoic Acid] displayed an IC50 at glucagon receptor (GCGR) (setting [2]) of 0.182 µM. In addition, in assay [1] (setting [3]), the “IC50 cAMP” value amounted to 0.165 µM.

In the case of `CCCC[C@@H](COc1ccc(-c2cc3ccccc3o2)cn1)Nc1ccc(C(=O)NCCC(=O)O)cc1` [Compound 15-22, (S)-3-(4-((1-((5-(benzofuran-2-yl)pyridin-2-yl)oxy)hexan-2-yl)amino)benzamido)propanoic Acid], the IC50 at glucagon receptor (GCGR) was 0.089 µM. Moreover, the “IC50 cAMP” value in assay [1] came out at 0.168 µM.

Regarding `CC(C)[C@H](COc1ccc(-c2nc3ccccc3s2)cc1)Nc1ccc(C(=O)NCCC(=O)O)cc1` [Compound 1-52, (R)-3-(4-((1-(4-(benzo[d]thiazol-2-yl)phenoxy)-3-methylbutan-2-yl)amino)benzamido)propanoic Acid], the IC50 on glucagon receptor (GCGR) (setting [2]) is 0.089 µM. For the same compound, the “IC50 cAMP” value in assay [1] (setting [3]) worked out at 0.377 µM.

For `CC(C)C[C@@H](COc1cc(F)c(-c2ccc(Cl)cc2Cl)c(F)c1)Nc1ccc(C(=O)NCCC(=O)O)cc1` [Compound 7-8, (S)-3-(4-((1-((2′,4′-dichloro-2,6-difluoro-[1,1′-biphenyl]-4-yl)oxy)-4-methylpentan-2-yl)amino)benzamido)propanoic Acid], the IC50 on glucagon receptor (GCGR) (setting [2]) turned out to be 0.049 µM. For the same compound, in assay [1] (setting [3]), the “IC50 cAMP” value came out at 0.329 µM.

In the case of `CCOC(=O)CCNC(=O)c1ccc(N[C@@H](Cc2ccc3ccccc3c2)C(=O)Nc2ccc(-c3cc4ccccc4o3)cc2)cc1` [Compound 23-21, Ethyl (S)-3-(4-((1-((4-(benzofuran-2-yl)phenyl)amino)-3-(naphthalen-2-yl)-1-oxopropan-2-yl)amino)benzamido)propanoate], the IC50 at glucagon receptor (GCGR) (uM) is above 10 µM. Besides, in assay [1] (uM), the “IC50 cAMP” value is above 10 µM.

The compound `CCCC[C@@H](COc1ccc(-c2ccc(C(F)(F)F)cc2F)c(F)c1)Nc1ccc(C(=O)NCCC(=O)O)cc1` [Compound 8-17, (S)-3-(4-((1-((2,2′-difluoro-4′-(trifluoromethyl)-[1,1′-biphenyl]-4-yl)oxy)hexan-2-yl)amino)benzamido)propanoic Acid] displayed an IC50 at glucagon receptor (GCGR) (setting [2]) of 0.308 µM. The “IC50 cAMP” value in assay [1] (setting [3]) was 0.2276 µM.

Take `Cc1nc(OC[C@H](CC(C)C)Nc2ccc(C(=O)NCCC(=O)O)cc2)ccc1-c1ccc(Cl)cc1Cl` [Compound 18-8, (S)-3-(4-((1-((5-(2,4-dichlorophenyl)-6-methylpyridin-2-yl)oxy)-4-methylpentan-2-yl)amino)benzamido)propanoic Acid]: at glucagon receptor (GCGR), the IC50 amounted to 0.049 µM. For the same compound, in assay [1], the “IC50 cAMP” value turned out to be 0.1225 µM.

With `CC(C)C[C@@H](COc1cc(F)c(-c2ccc(C(F)(F)F)cc2Cl)c(F)c1)Nc1ccc(C(=O)NCCC(=O)O)cc1` [Compound 7-5, (S)-3-(4-((1-((2′-chloro-2,6-difluoro-4′-(trifluoromethyl)-[1,1-biphenyl]-4-yl)oxy)-4-methylpentan-2-yl)amino)benzamido)propanoic Acid], the IC50 on glucagon receptor (GCGR) (setting [2]) was found to be 0.075 µM. The “IC50 cAMP” value in assay [1] (setting [3]) is 0.811 µM.

For the compound `CC(C)C[C@H](Cc1ccc(-c2ccc(C(C)(C)C)cc2)cc1)Nc1ccc(C(=O)NCCC(=O)O)cc1` [Compound 19-8, (R)-3-(4-((1-(4′-(tert-butyl)-[1,1′-biphenyl]-4-yl)-4-methylpentan-2-yl)amino)benzamido)propanoic Acid], the IC50 on glucagon receptor (GCGR) was determined as 0.152 µM. For the same compound, in assay [1], the “IC50 cAMP” value stood at 0.877 µM.

In turn, `CC(C)COC[C@H](Cc1ccc(-c2ccc(OC(F)(F)F)cc2)cc1)Nc1ccc(C(=O)NCCC(=O)O)cc1` [Compound 19-33, (S)-3-(4-((1-isobutoxy-3-(4′-(trifluoromethoxy)-[1,1′-biphenyl]-4-yl)propan-2-yl)amino)benzamido)propanoic Acid] came in with an IC50 at glucagon receptor (GCGR) of 0.284 µM. Moreover, in assay [1], the “IC50 cAMP” value was determined as 0.472 µM.

`CC(C)[C@@H](COc1ccc(-c2cc3ccccc3o2)c(F)c1)Nc1ccc(C(=O)NCCC(=O)O)cc1` [Compound 8-3, (S)-3-(4-((1-(4-(benzofuran-2-yl)-3-fluorophenoxy)-3-methylbutan-2-yl)amino)benzamido)propanoic Acid]: the half-inhibitory concentration (IC50) on glucagon receptor (GCGR) (setting [2]) is 0.083 µM. Moreover, the “IC50 cAMP” value in assay [1] (setting [3]) was 0.0844 µM.

Turning to `CC[C@H](C)[C@@H](COc1ccc(-c2cc3ccccc3o2)c(Cl)c1)Nc1ccc(C(=O)NCc2nnn[nH]2)cc1` [Compound 3-1, N-((1H-tetrazol-5-yl)methyl)-4-(((2S,3S)-1-(4-(benzofuran-2-yl)-3-chlorophenoxy)-3-methylpentan-2-yl)amino)benzamide], the IC50 on glucagon receptor (GCGR) (setting [2]) was 0.217 µM. In addition, the “IC50 cAMP” value in assay [1] (setting [3]) amounted to 1.822 µM.

The values above are taken from patent US11384060B2, “Amide compounds and use thereof” (ALPHALA CO., LTD., priority 2017, dated 2022).
